Results on 25 compounds are retold here after patent publication US7491827B2, “Aryl sulfonamides useful as inhibitors of chemokine receptor activity” (Millennium Pharmaceuticals, Inc., priority 2003, dated 2009).

Bounds are passed on as bounds.

The target in the first assay is T1, cloned human CCR8 receptor stably expressed in L1.2 cells (Homo sapiens, UniProt P51685).
T1 construct: expressed in transfected cells
T1 sequence (P51685 whole entry): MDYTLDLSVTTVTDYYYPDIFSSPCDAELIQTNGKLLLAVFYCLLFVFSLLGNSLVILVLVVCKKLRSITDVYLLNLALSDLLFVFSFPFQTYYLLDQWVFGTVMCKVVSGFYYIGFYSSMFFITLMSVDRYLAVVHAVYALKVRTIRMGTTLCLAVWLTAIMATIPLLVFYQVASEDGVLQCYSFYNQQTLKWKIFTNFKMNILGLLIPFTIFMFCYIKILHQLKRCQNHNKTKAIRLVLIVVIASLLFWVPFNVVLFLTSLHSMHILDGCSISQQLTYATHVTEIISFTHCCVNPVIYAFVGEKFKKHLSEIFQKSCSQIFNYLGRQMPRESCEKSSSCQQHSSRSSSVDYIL
Kind of assay: whole cell binding screen: inhibition of biotinylated human I309 binding to CCR8 (FMAT 8100 HTS). Particulars: Ki of compounds to inhibit I-309 binding to CCR8, L1.2/hCCR8 cells, biotinylated human I-309, 10 point concentration response starting at 10 μM. The method in brief: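 Ten-point dilutions, top 10 μM final, were tested for displacing biotin-I309 from hCCR8-transfected L1.2 cells in HEPES-buffered HBSS with BSA and sodium azide, mixing 0.5 h before FMAT 8100 detection. Signals converted to percent inhibition against untreated wells and a 100 nM excess unlabeled I309 control.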
The Ki is a dissociation constant, usually derived from enzyme kinetics or from competition with a known ligand. As to `CCOC(=O)N1CCC(NS(=O)(=O)c2ccc(C(=O)NC3CCCCC3)c3ccccc23)CC1` [Compound F-3, 4-(4-Cyclohexylcarbamoyl-naphthalene-1-sulfonylamino)-piperidine-1-carboxylic acid ethyl ester], the Ki was < 500 nM.

As for `CCNC(=O)N1CCC(NS(=O)(=O)c2ccc(C(=O)Nc3ccccc3C)c3ccccc23)CC1` [Compound F-10, 4-(4-o-Tolylcarbamoly-naphthalene-1-sulfonylamino)-piperidine-1-carboxylic acid ethylamide], the Ki is < 500 nM.

`CCOC(=O)N1CCC(NS(=O)(=O)c2ccc(C(=O)Nc3ccccc3C)c3ccccc23)CC1` [Compound F-11, 4-(4-o-Tolylcarbamoyl-naphthalene-1-sulfonylamino)-piperidine-1-carboxylic acid ethyl ester]: the Ki is < 500 nM.

The assay is the same for the next values; noted with them: L1.2/hCCR8 cells, biotinylated human I-309, 10 point concentration response starting at 10 μM; read-out: Ki of compounds to inhibit I-309 binding to CCR8.
Take `Cc1ccccc1C(=O)Nc1ccc(S(=O)(=O)NC2CCN(C(=O)OC(C)C)CC2)c2c1CCCC2` [Compound E-16, 4-[4-(2-Methyl-benzoylamino)-5,6,7,8-tetrahydro-naphthalene-1-sulfonylamino]-piperidine-1-carboxylic acid isopropyl ester]: the Ki was < 500 nM.

For the compound `Cc1ccccc1C(=O)Nc1ccc(S(=O)(=O)NC2CCN(C(=O)CN(C)C)CC2)c2c1CCCC2` [Compound E-17, N-{4-[1-(2-Dimethylandno-acetl)-piperidin-4-ylsulfamoyl]-5,6,7,8-tetrahydro-naphthalen-1-yl}-2-methyl-benzamide], the Ki was < 500 nM.

Regarding `COCC(=O)N1CCC(NS(=O)(=O)c2ccc(NC(=O)c3ccccc3C)c3c2CCCC3)CC1` [Compound E-18, N-{4-[1-(2-Methoxy-acetyl)-piperidin-4-ylsulfamoyl]-5,6,7,8-tetrahydro-naphthalen-1-yl}-2-methyl-benzamide], the Ki is < 500 nM.

Regarding `CCNC(=O)N1CCC(NS(=O)(=O)c2ccc(NC(=O)c3ccccc3C)c3c2CCCC3)CC1` [Compound E-19, 4-[4-(2-Methyl-benzoylamino)-5,6,7,8-tetrahydro-naphthalene-1-sulfonylamino]-piperidine-1-carboxylic acid ethylamide], the Ki was < 500 nM.

Turning to `CNC(=O)N1CCC(NS(=O)(=O)c2ccc(NC(=O)c3ccccc3C)c3c2CCCC3)CC1` [Compound E-22, 4-[4-(2-Methyl-benzoylamino)-5,6,7,8-tetrahydro-naphthalene-1-sulfonylamino]-piperidine-1-carboxylic acid methylamide], the Ki is < 500 nM.

Consider `Cc1ccccc1C(=O)Nc1ccc(S(=O)(=O)NC2CCOCC2)c2c1CCCC2` [Compound E-23, 2-Methyl-N-[4-(tetrahydro-pyran-4-ylsulfamoyl)-5,6,7,8-tetrahydro-naphthalen-1-yl]-benzamide], for which the Ki was < 500 nM.

On to `Cc1ccccc1C(=O)Nc1ccc(S(=O)(=O)NCCCN2CCCC2=O)c2c1CCCC2` [Compound E-24, 2-Methyl-N-{4-[3-(2-oxo-pyrrolidin-1-yl)-propylsulfamoyl]-5,6,7,8-tetrahydro-naphthalen-1-yl}-benzamide], for which the Ki is < 1000 nM.

As for `Cc1ccccc1C(=O)Nc1ccc(S(=O)(=O)NCCCN2CCOCC2)c2c1CCCC2` [Compound E-25, 2-Methyl-N-[4-(3-morpholin-4-yl-propylsulfamoyl)-5,6,7,8-tetrahydro-naphthalen-1-yl]-benzamide], the Ki was < 30000 nM.

For the compound `Cc1ccccc1C(=O)Nc1ccc(S(=O)(=O)NC2CCCC2)c2c1CCCC2` [Compound E-26, N-(4-Cyclopentylsulfamoyl-5,6,7,8-tetrahydro-naphthalen-1-yl)-2-methyl-benzamide], the Ki is < 1000 nM.

In the case of `Cc1ccccc1C(=O)Nc1ccc(S(=O)(=O)NCC2CCCCC2)c2c1CCCC2` [Compound E-27, N-[4-(Cyclohexylmethyl-sulfamoyl)-5,6,7,8-tetrahydro-naphthalen-1-yl]-2-methyl-benzamide], the Ki is < 500 nM.

In the case of `CC(C)(C)OC(=O)N1CCC(NS(=O)(=O)c2ccc(C(=O)NC3CCCCC3)c3ccccc23)CC1` [Compound F-1, 4-(4-Cyclohexylcarbamoyl-naphthalene-1-sulfonylamino)-piperidine-1-carboxylic acid tert-butyl ester], the Ki is < 1000 nM.

Consider `O=C(NC1CCCCC1)c1ccc(S(=O)(=O)NC2CCNCC2)c2ccccc12` [Compound F-2, 4-(Piperidin-4-ylsulfamoyl)-naphthalene-1-carboxylic acid cyclohexylamide], for which the Ki is < 30000 nM.

Consider `Cc1ccccc1NC(=O)c1ccc(S(=O)(=O)NC2CCN(C(=O)OC(C)(C)C)CC2)c2ccccc12` [Compound F-4, 4-(4-o-Tolylcarbamoyl-naphthalene-1-sulfonylamino)-piperidine-1-carboxylic acid tert-butyl ester], for which the Ki is < 500 nM.

As to `Cc1ccccc1NC(=O)c1ccc(S(=O)(=O)NC2CCNCC2)c2ccccc12` [Compound F-5, 4-(Piperidin-4-ylsulfamoyl)-naphthalene-1-carboxylic acid o-tolylamide], the Ki is < 30000 nM.

Consider `CN(C)C(=O)N1CCC(NS(=O)(=O)c2ccc(C(=O)NC3CCCCC3)c3ccccc23)CC1` [Compound F-6, 4-(4-Cyclohexylcarbamoyl-naphthalene-1-sulfonylamino)-piperidine-1-carboxylic acid dimethylamide], for which the Ki was < 500 nM.

Turning to `CCCC(=O)N1CCC(NS(=O)(=O)c2ccc(C(=O)NC3CCCCC3)c3ccccc23)CC1` [Compound F-7, 4-(1-Butyryl-piperidin-4-ylsulfamoyl)-naphthalene-1-carboxylic acid cyclohexylainde], the Ki is < 500 nM.

Turning to `CCNC(=O)N1CCC(NS(=O)(=O)c2ccc(C(=O)NC3CCCCC3)c3ccccc23)CC1` [Compound F-8, 4-(4-Cyclohexylcarbamoyl-naphthalene-1-sulfonylamino)-piperidine-1-carboxylic acid ethylamide], the Ki is < 500 nM.

In the case of `CCCC(=O)N1CCC(NS(=O)(=O)c2ccc(C(=O)Nc3ccccc3C)c3ccccc23)CC1` [Compound F-9, 4-(1-Butyryl-piperidin-4-ylsulfamoyl)-naphthalene-1-carboxylic acid o-tolylamide], the Ki is < 500 nM.

In the case of `Cc1ccccc1NC(=O)c1ccc(S(=O)(=O)NC2CCN(C(=O)N(C)C)CC2)c2ccccc12` [Compound F-12, 4-(4-o-Tolylcarbamoyl-naphthalene-1-sulfonylamino)-piperidine-1-carboxylic acid dimethylamide], the Ki was < 500 nM.

As to `Cc1cccc(NC(=O)c2ccc(S(=O)(=O)NC3CCN(C(=O)OC(C)(C)C)CC3)c3ccccc23)c1C` [Compound F-13, 4-[4-(2,3-Dimethyl-phenylcarbamoyl)-naphthalene-1-sulfonylamino]-piperidine-1-carboxylic acid tert-butyl ester], the Ki was < 500 nM.

Turning to `CC(C)(C)OC(=O)N1CCC(NS(=O)(=O)c2ccc(C(=O)Nc3ccccc3Cl)c3ccccc23)CC1` [Compound F-14, 4-[4-(2-Chloro-phenylcarbamoyl)-naphthalene-1-sulfonylamino]-piperidine-1-carboxylic acid tert-butyl ester], the Ki was < 1000 nM.

As to `CC(C)(C)OC(=O)N1CCC(NS(=O)(=O)c2ccc(C(=O)NC3CCOCC3)c3ccccc23)CC1` [Compound F-15, 4-[4-(Tetrahydro-pyran-4-ylcarbamoyl)-naphthalene-1-sulfonylamino]-piperidine-1-carboxylic acid tert-butyl ester], the Ki is < 30000 nM.
